Tested on: MV-4-11 cells
Experiment: Gene expression microarray analysis (Affymetrix PrimeView) and GSEA
Type: cell-based, human
Set-up: RFU PODN (11730768_x_at) / Fold change /veh PODN (11730768_x_at) / RFU LINC00158 (11744669_a_at) / Fold change /veh LINC00158 (11744669_a_at) / RFU DUSP10 (11751237_a_at) / Fold change /veh DUSP10 (11751237_a_at) / RFU ID3 (11757404_x_at) / Fold change /veh ID3 (11757404_x_at) / RFU PLEKHG5 (11737974_s_at) / Fold change /veh PLEKHG5 (11737974_s_at) / RFU LRRC4B (11730491_at) / Fold change /veh LRRC4B (11730491_at) / RFU GIMAP4 (11747438_a_at) / Fold change /veh GIMAP4 (11747438_a_at) / RFU KRT8 (11758183_x_at) / Fold change /veh KRT8 (11758183_x_at) / RFU CNN1 (11734310_a_at) / Fold change /veh CNN1 (11734310_a_at) / RFU VPS37D (11726825_at) / Fold change /veh VPS37D (11726825_at) / RFU C10orf10 (11716522_x_at) / Fold change /veh C10orf10 (11716522_x_at) / RFU KIR2DL2 /// KIR2DL4 /// KIR2DL5A /// KIR2DL5B /// KIR2DS1 /// KIR2DS2 /// KIR2DS3 /// KIR2DS4 /// KIR3DL3 /// KIR3DL3 /// KIR3DS1 (11738374_at) / Fold change /veh KIR2DL2 /// KIR2DL4 /// KIR2DL5A /// KIR2DL5B /// KIR2DS1 /// KIR2DS2 /// KIR2DS3 /// KIR2DS4 /// KIR3DL3 /// KIR3DL3 /// KIR3DS1 (11738374_at) / RFU C1QL1 (11718748_at) / Fold change /veh C1QL1 (11718748_at) / RFU TMPRSS4 (11747572_a_at) / Fold change /veh TMPRSS4 (11747572_a_at) / RFU HAMP (11756126_x_at) / Fold change /veh HAMP (11756126_x_at) / RFU RNFT2 (11725882_a_at) / Fold change /veh RNFT2 (11725882_a_at) / RFU NR4A2 (11747474_a_at) / Fold change /veh NR4A2 (11747474_a_at) / RFU ABCC12 (11746883_a_at) / Fold change /veh ABCC12 (11746883_a_at) / RFU TMEM136 (11760407_x_at) / Fold change /veh TMEM136 (11760407_x_at) / RFU CLDN22 /// WWC2 (11732394_at) / Fold change /veh CLDN22 /// WWC2 (11732394_at) / RFU HLA-DPB1 (11760878_x_at) / Fold change /veh HLA-DPB1 (11760878_x_at) / RFU SPINT1 (11716480_a_at) / Fold change /veh SPINT1 (11716480_a_at) / RFU GAP43 (11754022_s_at) / Fold change /veh GAP43 (11754022_s_at) / RFU A4GNT (11735810_at) / Fold change /veh A4GNT (11735810_at) / RFU PRB3 (11715151_x_at) / Fold change /veh PRB3 (11715151_x_at) / RFU TUBB4B (11761932_at) / Fold change /veh TUBB4B (11761932_at) / RFU CAPN14 (11732068_a_at) / Fold change /veh CAPN14 (11732068_a_at) / RFU TMCC2 (11721928_a_at) / Fold change /veh TMCC2 (11721928_a_at) / RFU IRGQ (11745062_a_at) / Fold change /veh IRGQ (11745062_a_at) / RFU FAM174B (11720279_a_at) / Fold change /veh FAM174B (11720279_a_at) / RFU TMPRSS4 (11748680_a_at) / Fold change /veh TMPRSS4 (11748680_a_at) / RFU FAM212B (11763350_a_at) / Fold change /veh FAM212B (11763350_a_at) / RFU PLEKHG5 (11743358_a_at) / Fold change /veh PLEKHG5 (11743358_a_at) / RFU ZSCAN30 (11745921_a_at) / Fold change /veh ZSCAN30 (11745921_a_at) / RFU CMKLR1 (11741424_a_at) / Fold change /veh CMKLR1 (11741424_a_at) / RFU LOC101060620 /// MAPK8IP1 (11723275_at) / Fold change /veh LOC101060620 /// MAPK8IP1 (11723275_at) / RFU SPTSSB (11747773_x_at) / Fold change /veh SPTSSB (11747773_x_at) / RFU PRSS12 (11739890_at) / Fold change /veh PRSS12 (11739890_at) / RFU BIN1 (11741810_x_at) / Fold change /veh BIN1 (11741810_x_at) / RFU WNT11 (11732464_a_at) / Fold change /veh WNT11 (11732464_a_at) / RFU C10orf10 (11716521_a_at) / Fold change /veh C10orf10 (11716521_a_at) / RFU C5orf56 (11738089_at) / Fold change /veh C5orf56 (11738089_at) / RFU CYB561 (11721691_x_at) / Fold change /veh CYB561 (11721691_x_at) / RFU ANKRD19P (11752326_a_at) / Fold change /veh ANKRD19P (11752326_a_at) / RFU OR2T12 /// OR2T33 /// OR2T8 (11738714_s_at) / Fold change /veh OR2T12 /// OR2T33 /// OR2T8 (11738714_s_at) / RFU VCAN (11748164_a_at) / Fold change /veh VCAN (11748164_a_at) / RFU JSRP1 (11732532_at) / Fold change /veh JSRP1 (11732532_at) / RFU KRTAP10-11 (11738290_x_at) / Fold change /veh KRTAP10-11 (11738290_x_at) / RFU MYO3A (11730013_a_at) / Fold change /veh MYO3A (11730013_a_at) / RFU EBF3 (11725865_a_at) / Fold change /veh EBF3 (11725865_a_at) / RFU CAMK2N1 (11719241_x_at) / Fold change /veh CAMK2N1 (11719241_x_at) / RFU C5orf56 (11738088_a_at) / Fold change /veh C5orf56 (11738088_a_at) / RFU OLFML3 (11715873_a_at) / Fold change /veh OLFML3 (11715873_a_at) / RFU LOC100653217 /// NTM (11731650_a_at) / Fold change /veh LOC100653217 /// NTM (11731650_a_at) / RFU MAPK11 (11762145_a_at) / Fold change /veh MAPK11 (11762145_a_at) / RFU FIZ1 (11724087_x_at) / Fold change /veh FIZ1 (11724087_x_at) / RFU OASL (11726364_x_at) / Fold change /veh OASL (11726364_x_at) / RFU SOX15 (11748057_x_at) / Fold change /veh SOX15 (11748057_x_at) / RFU CD79A (11719716_a_at) / Fold change /veh CD79A (11719716_a_at) / RFU HIST1H1D (11736915_at) / Fold change /veh HIST1H1D (11736915_at) / RFU CASKIN2 (11723855_a_at) / Fold change /veh CASKIN2 (11723855_a_at) / RFU LOC730098 (11760151_x_at) / Fold change /veh LOC730098 (11760151_x_at) / RFU OR4N2 (11742367_at) / Fold change /veh OR4N2 (11742367_at) / RFU PRRT2 (11749266_a_at) / Fold change /veh PRRT2 (11749266_a_at) / RFU SNX32 (11753110_a_at) / Fold change /veh SNX32 (11753110_a_at) / RFU CDHR5 (11726645_a_at) / Fold change /veh CDHR5 (11726645_a_at) / RFU RCAN1 (11760418_a_at) / Fold change /veh RCAN1 (11760418_a_at) / RFU FAM167A (11723789_a_at) / Fold change /veh FAM167A (11723789_a_at) / RFU FAM26E (11764081_at) / Fold change /veh FAM26E (11764081_at) / RFU ISYNA1 (11749810_s_at) / Fold change /veh ISYNA1 (11749810_s_at) / RFU ACY1 (11761880_at) / Fold change /veh ACY1 (11761880_at) / RFU 11764098_at / Fold change /veh 11764098_at / RFU SAMD14 (11745864_x_at) / Fold change /veh SAMD14 (11745864_x_at) / RFU NPB (11741838_a_at) / Fold change /veh NPB (11741838_a_at) / RFU TMPRSS6 (11731388_a_at) / Fold change /veh TMPRSS6 (11731388_a_at) / RFU KRTAP10-2 (11738614_at) / Fold change /veh KRTAP10-2 (11738614_at) / RFU ARHGAP8 /// PRR5-ARHGAP8 (11727945_x_at) / Fold change /veh ARHGAP8 /// PRR5-ARHGAP8 (11727945_x_at) / RFU KRTAP5-7 /// NADSYN1 (11734609_at) / Fold change /veh KRTAP5-7 /// NADSYN1 (11734609_at) / RFU RASL12 (11751679_a_at) / Fold change /veh RASL12 (11751679_a_at) / RFU CDKN2B (11736163_a_at) / Fold change /veh CDKN2B (11736163_a_at) / RFU PRF1 (11729649_at) / Fold change /veh PRF1 (11729649_at) / RFU, ZNF638 /// ZNF638-IT1 / Fold change vs veh, ZNF638 /// ZNF638-IT1 / RFU, PANK3 / Fold change vs veh, PANK3 / RFU, SH3YL1 / Fold change vs veh, SH3YL1 / RFU, ZEB2 / Fold change vs veh, ZEB2 / RFU, NRIP1 / Fold change vs veh, NRIP1 / RFU, PTTG1IP / Fold change vs veh, PTTG1IP / RFU, CAPN2 / Fold change vs veh, CAPN2 / RFU, MED14 / Fold change vs veh, MED14 / RFU, SNORA58 / Fold change vs veh, SNORA58 / RFU, C1orf63 / Fold change vs veh, C1orf63 / RFU, LRRFIP1 / Fold change vs veh, LRRFIP1 / RFU, NDUFAF7 / Fold change vs veh, NDUFAF7 / RFU, SLC12A2 / Fold change vs veh, SLC12A2 / RFU, IBTK / Fold change vs veh, IBTK / RFU, ESF1 / Fold change vs veh, ESF1 / Fold change vs veh, TMEM50B / RFU, TAOK1 / Fold change vs veh, TAOK1 / RFU, ACBD3 / Fold change vs veh, ACBD3 / RFU, TMA16 / Fold change vs veh, TMA16 / RFU, RWDD3 / Fold change vs veh, RWDD3 / RFU, BCAT1 / Fold change vs veh, BCAT1 / RFU, EDEM3 / Fold change vs veh, EDEM3 / RFU, TMEM33 / Fold change vs veh, TMEM33 / RFU, WDR75 / Fold change vs veh, WDR75 / RFU, AHCTF1 / Fold change vs veh, AHCTF1 / RFU, TFRC / Fold change vs veh, TFRC / RFU, ZDHHC17 / Fold change vs veh, ZDHHC17 / RFU, NOM1 / Fold change vs veh, NOM1 / RFU, ARL8B / Fold change vs veh, ARL8B / RFU, ZBTB11 / Fold change vs veh, ZBTB11 / RFU, TAMM41 / Fold change vs veh, TAMM41 / RFU, KIAA1704 /// LOC100996395 / Fold change vs veh, KIAA1704 /// LOC100996395 / RFU, ING1 / Fold change vs veh, ING1 / RFU, TRMT61B / Fold change vs veh, TRMT61B / RFU, FUBP3 / Fold change vs veh, FUBP3 / RFU, TP53 / Fold change vs veh, TP53 / RFU, TNKS2 / Fold change vs veh, TNKS2 / RFU, ZFP14 / Fold change vs veh, ZFP14 / RFU, ACTR2 / Fold change vs veh, ACTR2 / RFU, PPP3R1 / Fold change vs veh, PPP3R1 / RFU, PIK3R1 / Fold change vs veh, PIK3R1 / RFU, HNRNPA1 / Fold change vs veh, HNRNPA1 / RFU, RNF170 / Fold change vs veh, RNF170 / RFU, ZNF28 / Fold change vs veh, ZNF28 / RFU, RNGTT / Fold change vs veh, RNGTT / RFU, OGT / Fold change vs veh, OGT / RFU, BRD1 / Fold change vs veh, BRD1 / RFU, MARS / Fold change vs veh, MARS / RFU, ZNF655 / Fold change vs veh, ZNF655 / RFU, FAHD1 / Fold change vs veh, FAHD1 / RFU, BDP1 / Fold change vs veh, BDP1 / RFU, LRRCC1 / Fold change vs veh, LRRCC1 / RFU, ARID1A / Fold change vs veh, ARID1A / RFU, ZNF146 / Fold change vs veh, ZNF146 / RFU, ZNF330 / Fold change vs veh, ZNF330 / RFU, GPN3 / Fold change vs veh, GPN3 / RFU, C9orf123 / Fold change vs veh, C9orf123 / RFU, N4BP2L2 / Fold change vs veh, N4BP2L2 / RFU, ARFIP1 / Fold change vs veh, ARFIP1 / RFU, FAM179B / Fold change vs veh, FAM179B / RFU, BCL10 / Fold change vs veh, BCL10 / RFU, UHRF1BP1L / Fold change vs veh, UHRF1BP1L / RFU, BET1 / Fold change vs veh, BET1 / RFU, CNOT2 / Fold change vs veh, CNOT2 / RFU, ZNF268 / Fold change vs veh, ZNF268 / Fold change vs veh, ZNF507 / RFU, DGCR2 / Fold change vs veh, DGCR2 / RFU, WDSUB1 / Fold change vs veh, WDSUB1 / Fold change vs veh, HSP90B1 /// MIR3652 / RFU, ADSS / Fold change vs veh, ADSS / RFU, GK / Fold change vs veh, GK / RFU, ZNF148 / Fold change vs veh, ZNF148 / RFU, TAF9 / Fold change vs veh, TAF9 / RFU, SLC1A5 / Fold change vs veh, SLC1A5 / RFU, SLMO2 / Fold change vs veh, SLMO2 / RFU, ABCC4 / Fold change vs veh, ABCC4 / RFU, LOC101060439 /// RAP1B / Fold change vs veh, LOC101060439 /// RAP1B / RFU, RFX7 / Fold change vs veh, RFX7 / RFU, GTPBP10 / Fold change vs veh, GTPBP10 / RFU, CNEP1R1 / Fold change vs veh, CNEP1R1 / RFU, BIVM-ERCC5 /// ERCC5 / Fold change vs veh, BIVM-ERCC5 /// ERCC5 / RFU, ILF3 / Fold change vs veh, ILF3 / RFU 11762660_at / Fold change /veh 11762660_at / RFU VCAN (11757783_s_at) / Fold change /veh VCAN (11757783_s_at) / RFU DDX43 (11728927_at) / Fold change /veh DDX43 (11728927_at) / RFU KRT8 (11758188_x_at) / Fold change /veh KRT8 (11758188_x_at) / RFU NKD1 (11759106_at) / Fold change /veh NKD1 (11759106_at) / RFU SRD5A1 (11742802_a_at) / Fold change /veh SRD5A1 (11742802_a_at) / RFU TPSAB1 /// TPSB2 (11721975_s_at) / Fold change /veh TPSAB1 /// TPSB2 (11721975_s_at) / RFU GSTM3 (11746129_a_at) / Fold change /veh GSTM3 (11746129_a_at) / RFU IL23R (11737362_x_at) / Fold change /veh IL23R (11737362_x_at) / RFU TMEM51 (11727254_a_at) / Fold change /veh TMEM51 (11727254_a_at) / RFU PIWIL2 (11732686_x_at) / Fold change /veh PIWIL2 (11732686_x_at) / RFU ORM1 (11744905_x_at) / Fold change /veh ORM1 (11744905_x_at) / RFU CCDC152 (11743942_at) / Fold change /veh CCDC152 (11743942_at) / RFU ECM1 (11717891_a_at) / Fold change /veh ECM1 (11717891_a_at) / RFU IL23R (11748794_a_at) / Fold change /veh IL23R (11748794_a_at) / RFU TNFAIP8L3 (11732012_x_at) / Fold change /veh TNFAIP8L3 (11732012_x_at) / RFU MBOAT4 (11741988_at) / Fold change /veh MBOAT4 (11741988_at) / RFU 11764193_at / Fold change /veh 11764193_at / RFU TMEM53 (11763286_at) / Fold change /veh TMEM53 (11763286_at) / RFU MAGEB2 (11727129_at) / Fold change /veh MAGEB2 (11727129_at) / RFU TMEM200A (11744735_a_at) / Fold change /veh TMEM200A (11744735_a_at) / RFU CCDC152 (11751479_a_at) / Fold change /veh CCDC152 (11751479_a_at) / RFU FAM211A (11726209_a_at) / Fold change /veh FAM211A (11726209_a_at) / RFU RGS16 (11746705_a_at) / Fold change /veh RGS16 (11746705_a_at) / RFU VCAN (11755009_s_at) / Fold change /veh VCAN (11755009_s_at) / RFU RHOB (11743442_s_at) / Fold change /veh RHOB (11743442_s_at) / RFU RGS16 (11720943_a_at) / Fold change /veh RGS16 (11720943_a_at) / RFU RGS16 (11720944_at) / Fold change /veh RGS16 (11720944_at) / RFU, VPS4B / Fold change vs veh, VPS4B / RFU, CREB1 / Fold change vs veh, CREB1 / RFU, DNAJC13 / Fold change vs veh, DNAJC13 / RFU, GNAQ / Fold change vs veh, GNAQ / RFU, CDK5R1 / Fold change vs veh, CDK5R1 / RFU, ZRANB3 / Fold change vs veh, ZRANB3 / RFU, CUL4A / Fold change vs veh, CUL4A / RFU, CCNY / Fold change vs veh, CCNY / RFU, UFL1 / Fold change vs veh, UFL1 / RFU, COG3 / Fold change vs veh, COG3 / RFU, DIAPH2 / Fold change vs veh, DIAPH2 / RFU, SKA2 / Fold change vs veh, SKA2 / RFU, AFF3 / Fold change vs veh, AFF3 / RFU, LMF1 / Fold change vs veh, LMF1 / RFU, IPO11 / Fold change vs veh, IPO11 / RFU, DFFB / Fold change vs veh, DFFB / RFU, FOXP1 / Fold change vs veh, FOXP1 / RFU, CARD8 / Fold change vs veh, CARD8 / RFU, STRN3 / Fold change vs veh, STRN3 / RFU, ADK / Fold change vs veh, ADK / RFU, RASSF2 / Fold change vs veh, RASSF2 / RFU, WIPF1 / Fold change vs veh, WIPF1 / RFU, LARP1B / Fold change vs veh, LARP1B / RFU, RASA1 / Fold change vs veh, RASA1 / RFU, RB1 / Fold change vs veh, RB1 / RFU, PPFIA1 / Fold change vs veh, PPFIA1 / RFU, MAT2A / Fold change vs veh, MAT2A / RFU, CCT5 / Fold change vs veh, CCT5 / RFU, WDR92 / Fold change vs veh, WDR92 / RFU, CUX1 / Fold change vs veh, CUX1 / RFU, TTC7A / Fold change vs veh, TTC7A / RFU, TMEM135 / Fold change vs veh, TMEM135 / RFU, DEPTOR / Fold change vs veh, DEPTOR / RFU, CPM / Fold change vs veh, CPM / RFU, DNAJB6 / Fold change vs veh, DNAJB6 / RFU, CACNA2D3 / Fold change vs veh, CACNA2D3 / RFU, DTX4 / Fold change vs veh, DTX4 / RFU, TFCP2 / Fold change vs veh, TFCP2 / RFU, GMCL1 /// GMCL1P1 / Fold change vs veh, GMCL1 /// GMCL1P1 / RFU, AEBP2 / Fold change vs veh, AEBP2 / RFU, SNHG1 /// SNORD22 /// SNORD25 /// SNORD26 /// SNORD27 /// SNORD28 /// SNORD29 /// SNORD31 / Fold change vs veh, SNHG1 /// SNORD22 /// SNORD25 /// SNORD26 /// SNORD27 /// SNORD28 /// SNORD29 /// SNORD31 / Fold change (Aza/veh), C12orf56 (ProbeSet 11735607_a_at) / Fold change (ACY-1035/veh), C12orf56 (ProbeSet 11735607_a_at) / Fold change (Aza/veh), FGFR1OP (ProbeSet 11751329_s_at) / Fold change (ACY-1035/veh), FGFR1OP (ProbeSet 11751329_s_at) / Fold change (Aza/veh), VPS36 (ProbeSet 11739960_a_at) / Fold change (ACY-1035/veh), VPS36 (ProbeSet 11739960_a_at) / RFU SYPL1 (11715823_x_at) / Fold change /veh SYPL1 (11715823_x_at) / RFU IGFBP7 (11715501_s_at) / Fold change /veh IGFBP7 (11715501_s_at) / RFU REEP3 (11722064_at) / Fold change /veh REEP3 (11722064_at) / RFU IGLL1 (11728026_x_at) / Fold change /veh IGLL1 (11728026_x_at): dose or concentration left out as unconfirmed
Conditions: ProbeSet 11717523_x_at; LIST B

Nc1ncn([C@@H]2O[C@H](CO)[C@@H](O)[C@H]2O)c(=O)n1 [azacitidine]
Fold change vs veh, TMEM50B: 0.85
